Values quoted from earlier work, collected in patent US20070149611A1, “CB-DELTA8-THC COMPOSITION” (priority 2003, published 2007).

Experiments:
[1] = CBD alone
[2] = relative to Δ^9-THC
[3] = more effective than Δ^9-THC; Abrahamov et al, 1995
[4] = Δ^9-THC is easily oxidized to cannabinol

SMILES	effects when administered on its own [1]	psychometric potency, less potent than Δ^9-THC (generally considered) [2] [%]	psychometric potency, times less potent than Δ^9-THC (in some cases) [2]	anti-emetic effectiveness relative to Δ^9-THC [3] [%]	stability towards oxidation to cannabinol [4]
C=C(C)[C@@H]1CCC(C)=C[C@H]1c1c(O)cc(CCCCC)cc1O [CBD, cannabidiol]	no noticeable effects	–	–	–	–
CCCCCc1cc(O)c2c(c1)OC(C)(C)[C@@H]1CC=C(C)C[C@@H]21 [Δ^8-THC, Δ^8-tetrahydrocannabinol]	–	50	3-10 times	200	very stable
